Assays:
Wild-type yeast = assay: Yeast growth inhibition, wild-type strain; type: cell-based, Saccharomyces cerevisiae; conditions: Figure 4A
Experimental: S. cerevisiae growth inhibition was quantified using an established 96-well assay. Two isogenic W303 tester strains were used (construction details available upon request): UPY675 (matA, ade2-1, ura3-1, his3-11,15, trp1-1, leu2-3,112, can1-100, bar1::hisG, Δerg6::kanMX) and UPY1056 (isogenic to UPY675 but containing mcm4chaos3). Overnight yeast cultures were grown in YPD medium (1% (w/v) yeast extract/2% (w/v) peptone/2% (w/v) glucose), diluted to 0.05 A600, grown to an A600 of 0.1–0.15, divided into aliquots into a 96-well plate, and then treated with inhibitor titrations. Inhibitors were first diluted in pure DMSO, and then added to wells to a final volume of 100 μl containing 2% (v/v) DMSO. Plates were grown without shaking at 30°C for 24 h. Optical density was quantified at 0 and 24 h with a Bio-tek EL800 Universal Microplate reader. Percent relative growth was determined by calculating the change in optical density over 24 h at each concentration relative to a 2% DMSO control.

Mcm467 [1] = molecular target: T1, Mcm467 (Saccharomyces cerevisiae, UniProt P30665+P38132+P53091); assay: ssDNA double filter-binding assay, Mcm467; conditions: 1 mM compound, 150 nM helicase
T1 construct: made in house; host or cells: baculovirus-infected insect cells
T1 sequence (P30665 whole entry): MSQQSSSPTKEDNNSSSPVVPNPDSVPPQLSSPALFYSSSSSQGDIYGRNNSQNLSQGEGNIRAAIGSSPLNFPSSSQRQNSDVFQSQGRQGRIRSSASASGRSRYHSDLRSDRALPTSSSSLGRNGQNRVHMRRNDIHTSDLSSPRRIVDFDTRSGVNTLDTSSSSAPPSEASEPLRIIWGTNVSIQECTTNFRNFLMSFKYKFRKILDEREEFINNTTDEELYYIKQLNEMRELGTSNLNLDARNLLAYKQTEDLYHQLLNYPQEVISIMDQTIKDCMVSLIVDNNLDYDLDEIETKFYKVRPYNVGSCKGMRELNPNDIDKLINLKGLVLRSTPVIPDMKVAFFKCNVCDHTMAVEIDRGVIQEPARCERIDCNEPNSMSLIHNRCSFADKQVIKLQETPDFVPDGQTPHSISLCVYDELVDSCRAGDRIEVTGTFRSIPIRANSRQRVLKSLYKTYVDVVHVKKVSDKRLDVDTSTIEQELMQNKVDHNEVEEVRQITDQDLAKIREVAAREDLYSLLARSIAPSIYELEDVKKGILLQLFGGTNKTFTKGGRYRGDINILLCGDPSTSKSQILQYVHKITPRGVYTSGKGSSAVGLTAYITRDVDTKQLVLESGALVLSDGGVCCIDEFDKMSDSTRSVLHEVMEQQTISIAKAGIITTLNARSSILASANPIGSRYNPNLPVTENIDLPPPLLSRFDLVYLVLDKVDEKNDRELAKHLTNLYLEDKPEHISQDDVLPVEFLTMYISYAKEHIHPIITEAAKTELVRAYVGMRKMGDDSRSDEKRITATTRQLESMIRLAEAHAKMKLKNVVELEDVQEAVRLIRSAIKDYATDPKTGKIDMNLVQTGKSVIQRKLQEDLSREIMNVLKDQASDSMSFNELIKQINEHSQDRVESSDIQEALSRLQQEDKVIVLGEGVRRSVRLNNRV
T1 sequence (P53091 whole entry): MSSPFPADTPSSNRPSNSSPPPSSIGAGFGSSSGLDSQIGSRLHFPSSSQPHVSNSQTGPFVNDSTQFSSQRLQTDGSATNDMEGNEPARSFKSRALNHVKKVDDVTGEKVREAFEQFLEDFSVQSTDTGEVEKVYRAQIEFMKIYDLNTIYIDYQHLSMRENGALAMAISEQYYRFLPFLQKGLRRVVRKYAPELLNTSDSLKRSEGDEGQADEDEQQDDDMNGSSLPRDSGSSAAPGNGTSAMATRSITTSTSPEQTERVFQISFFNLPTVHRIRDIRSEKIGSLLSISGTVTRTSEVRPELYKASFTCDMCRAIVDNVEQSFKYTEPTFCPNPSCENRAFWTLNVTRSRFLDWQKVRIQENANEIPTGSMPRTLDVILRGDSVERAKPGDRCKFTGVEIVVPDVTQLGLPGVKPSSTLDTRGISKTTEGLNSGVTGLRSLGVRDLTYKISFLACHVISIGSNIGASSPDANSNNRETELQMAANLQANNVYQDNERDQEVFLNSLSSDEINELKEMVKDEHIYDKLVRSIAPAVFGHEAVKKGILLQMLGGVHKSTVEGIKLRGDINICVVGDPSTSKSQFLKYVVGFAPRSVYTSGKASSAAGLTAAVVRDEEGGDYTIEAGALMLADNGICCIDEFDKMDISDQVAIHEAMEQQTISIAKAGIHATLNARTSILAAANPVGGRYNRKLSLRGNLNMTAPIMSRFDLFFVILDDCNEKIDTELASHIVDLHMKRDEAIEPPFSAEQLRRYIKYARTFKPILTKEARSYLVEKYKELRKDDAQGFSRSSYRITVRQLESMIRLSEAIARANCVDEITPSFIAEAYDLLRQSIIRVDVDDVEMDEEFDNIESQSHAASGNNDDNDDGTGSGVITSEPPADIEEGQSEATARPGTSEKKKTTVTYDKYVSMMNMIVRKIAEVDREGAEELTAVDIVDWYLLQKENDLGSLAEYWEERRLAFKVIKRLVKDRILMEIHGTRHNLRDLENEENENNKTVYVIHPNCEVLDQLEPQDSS
T1 sequence (P38132 whole entry): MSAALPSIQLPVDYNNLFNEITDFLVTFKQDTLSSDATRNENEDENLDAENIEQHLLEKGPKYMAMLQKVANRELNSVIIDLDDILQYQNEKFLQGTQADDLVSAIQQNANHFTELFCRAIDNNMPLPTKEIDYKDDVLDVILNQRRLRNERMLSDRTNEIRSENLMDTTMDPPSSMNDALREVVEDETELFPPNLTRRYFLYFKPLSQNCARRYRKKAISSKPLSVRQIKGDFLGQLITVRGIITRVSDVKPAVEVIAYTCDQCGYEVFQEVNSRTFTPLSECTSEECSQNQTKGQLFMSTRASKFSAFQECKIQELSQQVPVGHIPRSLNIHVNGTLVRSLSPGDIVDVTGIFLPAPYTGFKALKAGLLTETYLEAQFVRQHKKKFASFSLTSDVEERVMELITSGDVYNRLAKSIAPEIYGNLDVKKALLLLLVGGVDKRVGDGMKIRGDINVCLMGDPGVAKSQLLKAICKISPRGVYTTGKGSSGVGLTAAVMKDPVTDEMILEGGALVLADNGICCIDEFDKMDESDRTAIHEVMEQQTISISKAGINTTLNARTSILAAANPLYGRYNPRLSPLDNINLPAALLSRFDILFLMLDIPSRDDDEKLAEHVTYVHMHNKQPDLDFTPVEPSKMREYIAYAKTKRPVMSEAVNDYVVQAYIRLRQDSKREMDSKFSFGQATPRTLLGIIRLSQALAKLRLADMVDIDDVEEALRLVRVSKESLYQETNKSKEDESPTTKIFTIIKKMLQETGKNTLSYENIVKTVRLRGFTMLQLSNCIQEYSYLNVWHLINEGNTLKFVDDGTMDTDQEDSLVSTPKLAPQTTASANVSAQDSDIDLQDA

Mcm467 [2] = molecular target: T1, Mcm467; assay: Mcm467 helicase (DNA unwinding) assay; type: biochemical; conditions: DNA unwinding, 100 nM hexamer, inhibitor preincubation; […]; read-out: IC50 Mcm467

## O=C(O)c1cn(C2CC2)c2cc(N3CCNCC3)c(F)cc2c1=O [Ciprofloxacin, ciprofloxacin, reference compound]
Wild-type yeast
  growth response of wild-type yeast: resistant
Mcm467 [1]
  effect on ssDNA binding of Mcm467: only modest effects
Mcm467 [2]
  IC50: 1890 µM
